pIC50: −log10 of the molar value. Calls of active or inactive are those of the source. No cut-off for these calls is given here. Square brackets hold non-standard residues; d marks the D form. Peptide text beside a SMILES is read from it. * marks the point of attachment. 1Nal = N[C@@H](Cc1cccc2ccccc12)C(=O)O; Asu = N[C@@H](CCCCCC(=O)O)C(=O)O; β3hL = CC(C)C[C@H](N)CC(=O)O; Nva = CCC[C@H](N)C(=O)O; NHOH = ON*
Experiments:
Homo sapiens [1] = organism: Homo sapiens; assay: Increase in SMN2 mRNA expression in induced pluripotent stem cell derived from human GM03813 cells isolated from SMA patient homozygous for deletion of exons 7 and 8 in SMN1 gene and containing 3 SMN2 gene copies at 0.1 uM by PCR assay relative to untreated control
Homo sapiens [2] = organism: Homo sapiens; assay: Increase in SMN2 mRNA expression in induced pluripotent stem cell derived from human GM03813 cells isolated from SMA patient homozygous for deletion of exons 7 and 8 in SMN1 gene and containing 3 SMN2 gene copies at 1 uM by PCR assay relative to untreated control
[3] = target: T1, Protein deacetylase HDAC6 (Homo sapiens, UniProt Q9UBN7); assay: Inhibition of HDAC6 (unknown origin)
T1 sequence (Q9UBN7 whole entry): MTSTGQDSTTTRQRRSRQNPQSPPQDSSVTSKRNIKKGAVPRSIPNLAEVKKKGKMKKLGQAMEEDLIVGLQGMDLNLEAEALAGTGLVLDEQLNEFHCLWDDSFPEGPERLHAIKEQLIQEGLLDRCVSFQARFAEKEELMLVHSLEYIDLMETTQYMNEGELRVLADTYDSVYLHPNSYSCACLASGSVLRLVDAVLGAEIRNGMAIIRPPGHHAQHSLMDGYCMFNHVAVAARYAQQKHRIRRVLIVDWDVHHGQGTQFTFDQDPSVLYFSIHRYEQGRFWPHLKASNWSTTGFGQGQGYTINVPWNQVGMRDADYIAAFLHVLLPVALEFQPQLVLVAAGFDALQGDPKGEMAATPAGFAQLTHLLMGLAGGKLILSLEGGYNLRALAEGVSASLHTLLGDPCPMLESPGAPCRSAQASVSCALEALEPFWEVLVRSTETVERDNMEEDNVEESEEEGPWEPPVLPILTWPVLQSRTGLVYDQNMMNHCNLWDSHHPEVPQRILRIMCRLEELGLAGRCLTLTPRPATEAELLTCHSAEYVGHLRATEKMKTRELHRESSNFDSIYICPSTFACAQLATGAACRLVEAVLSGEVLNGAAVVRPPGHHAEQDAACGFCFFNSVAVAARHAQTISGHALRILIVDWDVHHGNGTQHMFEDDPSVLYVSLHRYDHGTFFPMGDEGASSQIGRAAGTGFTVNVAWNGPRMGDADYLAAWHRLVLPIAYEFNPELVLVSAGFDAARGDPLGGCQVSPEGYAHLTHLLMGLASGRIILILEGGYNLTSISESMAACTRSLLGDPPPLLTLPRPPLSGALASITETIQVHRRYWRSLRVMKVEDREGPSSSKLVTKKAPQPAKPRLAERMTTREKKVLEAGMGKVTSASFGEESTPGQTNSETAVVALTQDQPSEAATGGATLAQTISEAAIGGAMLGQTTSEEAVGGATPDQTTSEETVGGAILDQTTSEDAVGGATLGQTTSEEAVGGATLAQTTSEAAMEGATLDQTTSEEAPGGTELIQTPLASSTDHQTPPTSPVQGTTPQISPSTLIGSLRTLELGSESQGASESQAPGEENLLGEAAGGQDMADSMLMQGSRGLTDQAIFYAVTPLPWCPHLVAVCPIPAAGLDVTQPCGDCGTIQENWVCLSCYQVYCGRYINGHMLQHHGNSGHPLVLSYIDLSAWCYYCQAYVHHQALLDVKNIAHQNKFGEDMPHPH

Homo sapiens [4] = organism: Homo sapiens; assay: Increase in SMN2 mRNA expression in induced pluripotent stem cell derived from human GM03813 cells isolated from SMA patient homozygous for deletion of exons 7 and 8 in SMN1 gene and containing 3 SMN2 gene copies at 0.1 to 5 uM by PCR assay relative to untreated control
[5] = Toxicity against induced pluripotent stem cell derived from human GM03813 cells isolated from SMA patient homozygous for deletion of exons 7 and 8 in SMN1 gene and containing 3 SMN2 gene copies assessed as reduction in SMN2 protein level at 10 uM; assay type: cell-based; details: induced pluripotent stem cell-derived neuron
Homo sapiens [6] = organism: Homo sapiens; assay: Increase in […] in induced pluripotent stem cell derived from human GM03813 cells isolated from SMA patient homozygous for deletion of exons 7 and 8 in SMN1 gene and containing 3 SMN2 gene copies assessed as increase in SMN protein aggregates (Gems) at 5 uM incubated for 48 hrs by confocal microscopy
Histone deacetylase 2 = Histone deacetylase 2 (Homo sapiens, UniProt Q92769); assay: Inhibition of HDAC2 (unknown origin)
Histone deacetylase 2, sequence (Q92769 whole entry): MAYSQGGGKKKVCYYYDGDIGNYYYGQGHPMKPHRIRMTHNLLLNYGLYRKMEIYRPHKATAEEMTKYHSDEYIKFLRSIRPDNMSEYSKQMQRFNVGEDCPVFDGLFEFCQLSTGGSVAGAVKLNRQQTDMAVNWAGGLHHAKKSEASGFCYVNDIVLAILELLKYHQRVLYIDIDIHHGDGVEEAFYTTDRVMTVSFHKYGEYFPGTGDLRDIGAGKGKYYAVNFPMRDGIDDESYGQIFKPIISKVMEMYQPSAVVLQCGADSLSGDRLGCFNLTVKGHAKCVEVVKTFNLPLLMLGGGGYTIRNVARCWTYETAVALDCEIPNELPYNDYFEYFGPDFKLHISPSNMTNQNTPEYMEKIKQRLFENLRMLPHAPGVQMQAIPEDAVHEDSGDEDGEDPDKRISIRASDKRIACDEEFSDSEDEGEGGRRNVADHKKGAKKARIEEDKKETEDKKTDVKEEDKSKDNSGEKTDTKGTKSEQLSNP

Histone deacetylase 3 = Histone deacetylase 3 (Homo sapiens, UniProt O15379); assay: Inhibition of HDAC3 (unknown origin)
Histone deacetylase 3, sequence (O15379 whole entry): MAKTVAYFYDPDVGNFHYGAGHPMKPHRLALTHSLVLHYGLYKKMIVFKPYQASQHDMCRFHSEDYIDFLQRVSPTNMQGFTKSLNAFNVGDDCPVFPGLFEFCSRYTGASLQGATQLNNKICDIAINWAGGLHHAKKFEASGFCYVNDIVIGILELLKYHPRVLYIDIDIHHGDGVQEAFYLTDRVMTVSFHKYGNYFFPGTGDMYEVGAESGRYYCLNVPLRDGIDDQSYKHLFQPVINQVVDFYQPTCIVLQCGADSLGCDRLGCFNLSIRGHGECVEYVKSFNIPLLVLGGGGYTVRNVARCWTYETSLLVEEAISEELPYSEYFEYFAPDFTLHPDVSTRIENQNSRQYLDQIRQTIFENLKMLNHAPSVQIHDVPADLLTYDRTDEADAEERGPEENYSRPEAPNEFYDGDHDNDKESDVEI

Histone deacetylase 8 = target: T2, Histone deacetylase 8 (Homo sapiens, UniProt Q9BY41); assay: Inhibition of HDAC8 (unknown origin)
T2 sequence (Q9BY41 whole entry): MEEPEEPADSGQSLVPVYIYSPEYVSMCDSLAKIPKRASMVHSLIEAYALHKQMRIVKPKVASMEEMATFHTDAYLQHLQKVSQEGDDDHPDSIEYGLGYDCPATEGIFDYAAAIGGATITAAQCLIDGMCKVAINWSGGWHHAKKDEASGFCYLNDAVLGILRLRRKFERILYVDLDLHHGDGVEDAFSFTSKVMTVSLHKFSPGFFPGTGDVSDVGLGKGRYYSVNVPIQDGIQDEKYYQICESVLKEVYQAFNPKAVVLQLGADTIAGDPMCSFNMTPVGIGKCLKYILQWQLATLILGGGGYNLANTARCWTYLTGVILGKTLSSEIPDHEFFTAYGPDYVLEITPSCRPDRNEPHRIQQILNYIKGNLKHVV

| fold change (FC) (Homo sapiens [1]) | fold change (FC) (Homo sapiens [2]) | pIC50 (Histone deacetylase 2) | SMILES | other results |
| --- | --- | --- | --- | --- |
| 0.6 to 1 | 0.8 to 1.4 | – | CCC(=O)CCCCC[C@@H]1NC(=O)[C@H](Cc2ccccc2)NC(=O)C[C@H](CC(C)C)NC(=O)[C@H](Cc2c[nH]c3ccccc23)NC1=O | – |
| – | 0.6 to 0.8 | – | CCC(=O)CCCCC[C@@H]1NC(=O)[C@H](C)NC(=O)C[C@H](CC(C)C)NC(=O)[C@H](Cc2cccc3ccccc23)NC1=O | – |
| – | 1.5 to 1.8 | – | CCC[C@@H]1NC(=O)[C@H](C)NC(=O)C[C@H](CC(C)C)NC(=O)[C@H](Cc2cn(CN(C)C)c3ccccc23)NC1=O | – |
| – | 0.7 to 0.8 | 5.80 | CCC[C@@H]1NC(=O)[C@H](C)NC(=O)C[C@H](CC(C)C)NC(=O)[C@H](Cc2c[nH]c3ccccc23)NC1=O (cyclo(A[Nva]W[β3hL])) | pIC50 (Histone deacetylase 3): 5.84 |
| 1.2 to 1.3 | 2.1 to 2.4 | 7.49 | CC(C)C[C@H]1CC(=O)N[C@@H](C)C(=O)N[C@@H](CCCCCC(=O)C(F)(F)F)C(=O)N[C@@H](Cc2c[nH]c3ccccc23)C(=O)N1 | pIC50 [3]: 5.55 |
| 0.9 | 0.9 to 1.1 | – | CCC(=O)CCCCC[C@@H]1NC(=O)[C@@H](C)n2nncc2[C@H](CC(C)C)NC(=O)[C@H](Cc2c[nH]c3ccccc23)NC1=O | pIC50 (Histone deacetylase 8): 6.96 |
| 1 to 1.4 | 1.2 to 2 | 7.40 | CCC(=O)CCCCC[C@@H]1NC(=O)[C@@H]2CCCN2C(=O)C[C@H](CC(C)C)NC(=O)[C@H](Cc2c[nH]c3ccccc23)NC1=O | pIC50 (Histone deacetylase 8): 5.82 |
| 1 to 1.5 | 2.7 to 3.6 | – | CC(C)C[C@H]1CC(=O)N[C@@H](Cc2ccccc2)C(=O)N[C@@H](CCCCCC(=O)NO)C(=O)N[C@@H](Cc2c[nH]c3ccccc23)C(=O)N1 (cyclo([Asu](NHOH)W[β3hL]F)) | – |
| 1 | 0.6 to 1.1 | – | CC(C)C[C@H]1CC(=O)N[C@@H](CCCCN)C(=O)N[C@@H](CCCCCC(=O)O)C(=O)N[C@@H](Cc2cccc3ccccc23)C(=O)N1 (cyclo([Asu][1Nal][β3hL]K)) | – |

| SMILES | fold change (FC) (Homo sapiens [1]) | fold change (FC) (Homo sapiens [2]) | pIC50 (Histone deacetylase 2) | other results |
| --- | --- | --- | --- | --- |
| CCC(=O)CCCCC[C@@H]1NC(=O)[C@H](CCCCNC(C)=O)NC(=O)C[C@H](CC(C)C)NC(=O)[C@H](Cc2c[nH]c3ccccc23)NC1=O | 1 to 1.5 | 2.7 to 3.2 | – | pIC50 [3]: < 5.00; Activity (Homo sapiens [4]): Dose-dependent effect; Activity [5]: Toxic; Activity (Homo sapiens [6]): Active |
| CC(C)C[C@H]1CC(=O)N[C@@H](C)C(=O)N[C@@H](CCCCCC(=O)NO)C(=O)N[C@@H](Cc2c[nH]c3ccccc23)C(=O)N1 (cyclo([Asu](NHOH)W[β3hL]A)) | 1.4 to 2.2 | 2 to 3 | 8.30 | – |
| CC(C)C[C@H]1CC(=O)N[C@@H](C)C(=O)N[C@@H](CCCCCC(=O)O)C(=O)N[C@@H](Cc2cccc3ccccc23)C(=O)N1 (cyclo([Asu][1Nal][β3hL]A)) | 1.1 to 1.6 | 1.4 to 1.5 | – | – |

— ChEMBL document CHEMBL4052703, “Cyclic tetrapeptide HDAC inhibitors as potential therapeutics for spinal muscular atrophy: Screening with iPSC-derived neuronal cells” (Bioorg Med Chem Lett, 2017)
